Consider 31 molecules from patent publication US12129275B2, “Neuroactive steroids, compositions, and uses thereof” (SAGE THERAPEUTICS, INC., priority 2011, dated 2024).

In assay [1] the target is T1, NMDA receptor (GRIN1/GRIN2A subunits) (Homo sapiens, UniProt Q05586+Q12879).
T1 construct: expressed in transfected cells
In words: NMDA potentiation, whole-cell patch-clamp in HEK cells. The assay is classed as cell-based. To be noted: currents evoked by 30 μM NMDA and 5.0 μM Glycine, holding potential −80 mV; for NMDA 1a2A (%) Potentiation 0.1 uM: compound 0.1 uM; for NMDA 1a2A (%) Potentiation 1 uM: compound 1 uM. (In patch-clamp work, channel activity is measured electrically.)

A further assay addresses NMDA (NR1a/NR2A) (Homo sapiens, UniProt Q05586+Q12879). The conditions noted are these: reported, Madau et al. / Connick et al. 2009; cited from earlier work.
The next assay has as its system NMDA receptors. The conditions noted are these: background statement; cited from earlier work.

“And” between values parts separate entries of the source, which are not always exact repeats. Equal entries are not always repeated.

T1 sequence (Q12879 23-1464, other chains not shown): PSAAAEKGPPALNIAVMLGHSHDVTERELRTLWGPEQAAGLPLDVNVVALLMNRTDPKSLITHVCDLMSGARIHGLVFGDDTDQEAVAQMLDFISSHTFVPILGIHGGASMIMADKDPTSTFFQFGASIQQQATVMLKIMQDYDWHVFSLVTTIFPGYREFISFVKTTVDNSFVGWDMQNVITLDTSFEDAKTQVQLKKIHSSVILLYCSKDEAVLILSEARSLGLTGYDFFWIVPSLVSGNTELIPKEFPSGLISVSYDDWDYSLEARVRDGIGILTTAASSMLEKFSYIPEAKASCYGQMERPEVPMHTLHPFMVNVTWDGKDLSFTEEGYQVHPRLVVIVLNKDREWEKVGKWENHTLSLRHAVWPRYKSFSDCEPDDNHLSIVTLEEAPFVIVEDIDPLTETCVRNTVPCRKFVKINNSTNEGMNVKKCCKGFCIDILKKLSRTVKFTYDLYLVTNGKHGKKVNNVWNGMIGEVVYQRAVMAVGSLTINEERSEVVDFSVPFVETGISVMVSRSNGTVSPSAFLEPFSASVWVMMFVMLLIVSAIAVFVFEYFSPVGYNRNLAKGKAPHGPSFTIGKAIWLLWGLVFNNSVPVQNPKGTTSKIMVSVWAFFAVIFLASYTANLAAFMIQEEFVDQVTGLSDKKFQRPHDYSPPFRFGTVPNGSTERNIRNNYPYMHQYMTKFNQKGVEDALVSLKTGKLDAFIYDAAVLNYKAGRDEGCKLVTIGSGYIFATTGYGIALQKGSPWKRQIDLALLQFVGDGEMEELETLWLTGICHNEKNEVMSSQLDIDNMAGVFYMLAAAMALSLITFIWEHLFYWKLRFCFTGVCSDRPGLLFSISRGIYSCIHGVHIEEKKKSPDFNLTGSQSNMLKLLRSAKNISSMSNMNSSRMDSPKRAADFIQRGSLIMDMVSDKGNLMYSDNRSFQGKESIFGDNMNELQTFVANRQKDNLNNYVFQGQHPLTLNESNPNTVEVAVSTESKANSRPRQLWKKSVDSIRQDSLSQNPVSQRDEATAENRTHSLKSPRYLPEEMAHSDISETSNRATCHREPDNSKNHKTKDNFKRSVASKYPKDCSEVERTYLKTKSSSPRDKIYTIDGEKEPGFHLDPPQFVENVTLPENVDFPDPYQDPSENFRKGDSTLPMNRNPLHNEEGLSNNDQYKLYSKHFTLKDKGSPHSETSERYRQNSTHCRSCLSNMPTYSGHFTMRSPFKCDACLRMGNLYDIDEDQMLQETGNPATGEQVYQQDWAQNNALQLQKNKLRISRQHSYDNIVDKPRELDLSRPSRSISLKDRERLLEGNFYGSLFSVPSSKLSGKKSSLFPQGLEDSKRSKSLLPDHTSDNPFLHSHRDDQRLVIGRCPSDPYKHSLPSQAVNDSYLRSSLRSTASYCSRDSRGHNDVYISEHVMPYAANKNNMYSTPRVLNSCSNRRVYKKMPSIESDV
Chain of NMDA (NR1a/NR2A) (Q12879 23-1464, other chains not shown): as above

Regarding `CC(CCC(C)(C)O)[C@H]1CC[C@H]2[C@@H]3CC=C4C[C@@H](O)CC[C@]4(C)[C@H]3CC[C@]12C` (stereo partly shown), in assay [1], the “NMDA 1a2A (%) Potentiation 0.1 uM” value was found to be 55% and the “NMDA 1a2A (%) Potentiation 1 uM” value was 197%.
For `C[C@H](CCC(C)(C)O)[C@H]1CC[C@H]2[C@@H]3CC=C4C[C@@](C)(O)CC[C@]4(C)[C@H]3CC[C@]12C`, in that order: 128% and 348%.
Consider `C[C@H](CCC(C)(C)O)[C@H]1CC[C@H]2[C@@H]3CC=C4C[C@@H](O)CC[C@@H]4[C@H]3CC[C@]12C`, for which, in assay [1], the “NMDA 1a2A (%) Potentiation 0.1 uM” value is given as 28% and the “NMDA 1a2A (%) Potentiation 1 uM” value came out at 66%.
The matching figures for `C[C@H](CCC1(O)CC1)[C@H]1CC[C@H]2[C@@H]3CC=C4C[C@@H](O)CC[C@]4(C)[C@H]3CC[C@]12C`: 74% and 171%.
The matching figures for `C[C@H](CC(F)(F)CO)[C@H]1CC[C@H]2[C@@H]3CC=C4C[C@@H](O)CC[C@]4(C)[C@H]3CC[C@]12C`: 31% and 95%.
The matching figures for `C[C@H](CCCO)[C@H]1CC[C@H]2[C@@H]3CC=C4C[C@@H](O)CC[C@]4(C)[C@H]3CC[C@]12C`: 39% and 127%.
For `C[C@H](CCC(C)(C)O)[C@H]1CC[C@H]2[C@@H]3CC[C@H]4C[C@@H](O)CC[C@@H]4[C@H]3CC[C@]12C`, in assay [1], the “NMDA 1a2A (%) Potentiation 0.1 uM” value is 19% and the “NMDA 1a2A (%) Potentiation 1 uM” value is reported as 44%.
The matching figures for `C[C@@H]([C@H]1CC[C@H]2[C@@H]3CC=C4C[C@@H](O)CC[C@]4(C)[C@H]3CC[C@]12C)C(C)(C)O`: 4% and 24%.
For `CC(O)CC[C@@H](C)[C@H]1CC[C@H]2[C@@H]3CC=C4C[C@@H](O)CC[C@]4(C)[C@H]3CC[C@]12C` (stereo partly shown), in that order: 42% and 98%.
In the case of `C[C@H](CCC(C)(C)O)[C@H]1CC[C@H]2[C@@H]3CC=C4C[C@](C)(O)CC[C@]4(C)[C@H]3CC[C@]12C`, in assay [1], the “NMDA 1a2A (%) Potentiation 0.1 uM” value stood at 13% and the “NMDA 1a2A (%) Potentiation 1 uM” value was determined as 60%.
As to `C[C@H](CCC(C)(C)N)[C@H]1CC[C@H]2[C@@H]3CC=C4C[C@@H](O)CC[C@]4(C)[C@H]3CC[C@]12C`, in assay [1], the “NMDA 1a2A (%) Potentiation 0.1 uM” value is on record as −8% and the “NMDA 1a2A (%) Potentiation 1 uM” value was −19%.
The matching figures for `CC[C@]1(O)CC[C@@]2(C)C(=CC[C@H]3[C@@H]4CC[C@H]([C@H](C)CCC(C)(C)O)[C@@]4(C)CC[C@@H]32)C1`: 181% and 286%.
For `CC[C@@]1(O)CC[C@@]2(C)C(=CC[C@H]3[C@@H]4CC[C@H]([C@H](C)CCC(C)(C)O)[C@@]4(C)CC[C@@H]32)C1`, in that order: 23% and 139%.
The matching figures for `CNC(C)(C)CC[C@@H](C)[C@H]1CC[C@H]2[C@@H]3CC=C4C[C@@H](O)CC[C@]4(C)[C@H]3CC[C@]12C`: 25% and 19%.
Take `C[C@H](CCC(C)(C)O)[C@H]1CC[C@H]2[C@@H]3CC[C@H]4C[C@@](C)(O)CC[C@@H]4[C@H]3CC[C@]12C`: in assay [1], the “NMDA 1a2A (%) Potentiation 0.1 uM” value came to 25% and the “NMDA 1a2A (%) Potentiation 1 uM” value came to 114%.
In the case of `C[C@H](CCC(C)(C)O)[C@H]1CC[C@H]2[C@@H]3CC[C@H]4C[C@](C)(O)CC[C@@H]4[C@H]3CC[C@]12C`, in assay [1], the “NMDA 1a2A (%) Potentiation 0.1 uM” value is 21% and the “NMDA 1a2A (%) Potentiation 1 uM” value is 52%.
In the case of `C[C@H](CCC(C)(C)O)[C@H]1CC[C@H]2[C@@H]3CC[C@H]4C[C@](O)(C(F)(F)F)CC[C@@H]4[C@H]3CC[C@]12C`, in assay [1], the “NMDA 1a2A (%) Potentiation 0.1 uM” value is listed as 14% and the “NMDA 1a2A (%) Potentiation 1 uM” value came to 85%.
With `C[C@H](CCC(C)(C)O)[C@H]1CC[C@H]2[C@@H]3CC[C@H]4C[C@@H](O)CC[C@]4(C)[C@H]3CC[C@]12C`, in assay [1], the “NMDA 1a2A (%) Potentiation 0.1 uM” value is on record as 18% and the “NMDA 1a2A (%) Potentiation 1 uM” value stood at 85%.
For `C[C@H](CCC(C)(C)O)[C@H]1CC[C@H]2[C@@H]3CC[C@H]4C[C@](O)(C(F)(F)F)CC[C@]4(C)[C@H]3CC[C@]12C`, in that order: 59% and 172%.
For `C[C@H](CCC(C)(C)O)[C@H]1CC[C@H]2[C@@H]3CC[C@H]4C[C@](C)(O)CC[C@]4(C)[C@H]3CC[C@]12C`, in that order: 19% and 30%.
In the case of `C[C@H](CCC(C)(C)O)[C@H]1CC[C@H]2[C@@H]3CC[C@H]4C[C@@](C)(O)CC[C@]4(C)[C@H]3CC[C@]12C`, in assay [1], the “NMDA 1a2A (%) Potentiation 0.1 uM” value is 87% and 70%; the “NMDA 1a2A (%) Potentiation 1 uM” value was 278% and 238%.
`C[C@H](CC(C)(C)O)[C@H]1CC[C@H]2[C@@H]3CC=C4C[C@@H](O)CC[C@]4(C)[C@H]3CC[C@]12C`: in assay [1], the “NMDA 1a2A (%) Potentiation 0.1 uM” value is recorded as −5% and the “NMDA 1a2A (%) Potentiation 1 uM” value was determined as 27%.
The matching figures for `CC(C)[C@H](O)CC[C@@H](C)[C@H]1CC[C@H]2[C@@H]3CC=C4C[C@@H](O)CC[C@]4(C)[C@H]3CC[C@]12C`: 82% and 137%.
For `C[C@H](CCC(C)(C)O)[C@H]1CC[C@H]2[C@@H]3CC[C@@H]4C[C@@](O)(C(F)(F)F)CC[C@]4(C)[C@H]3CC[C@]12C`, in that order: 9% and 18%.
For `COC[C@@]1(O)CC[C@@]2(C)[C@@H](CC[C@@H]3[C@@H]2CC[C@]2(C)[C@@H]([C@H](C)CCC(C)(C)O)CC[C@@H]32)C1`, in assay [1], the “NMDA 1a2A (%) Potentiation 0.1 uM” value is given as 8% and the “NMDA 1a2A (%) Potentiation 1 uM” value was determined as 25%.
As to `COC[C@]1(O)CC[C@@]2(C)[C@@H](CC[C@@H]3[C@@H]2CC[C@]2(C)[C@@H]([C@H](C)CCC(C)(C)O)CC[C@@H]32)C1`, in assay [1], the “NMDA 1a2A (%) Potentiation 0.1 uM” value amounted to 14% and the “NMDA 1a2A (%) Potentiation 1 uM” value stood at 110%.
The matching figures for `CC(C)(O)CCC[C@H]1CCC2C3CC[C@H]4C[C@@](C)(O)CC[C@]4(C)C3CC[C@@]21C` (stereo partly shown): 17% and 105%.
Regarding `CC(C)(O)CCO[C@H]1CCC2C3CC[C@H]4C[C@@](C)(O)CC[C@]4(C)C3CC[C@@]21C` (stereo partly shown), in assay [1], the “NMDA 1a2A (%) Potentiation 0.1 uM” value is listed as 6% and the “NMDA 1a2A (%) Potentiation 1 uM” value amounted to 27%.
For `CC(C)(O)COC[C@H]1CCC2C3CC=C4C[C@@](C)(O)CC[C@]4(C)C3CC[C@@]21C` (stereo partly shown), in assay [1], the “NMDA 1a2A (%) Potentiation 0.1 uM” value is recorded as −5% and the “NMDA 1a2A (%) Potentiation 1 uM” value is −14%.
On to `C[C@H](CCC(C)(C)O)[C@H]1CC[C@H]2[C@@H]3CC=C4C[C@@H](O)CC[C@]4(C)[C@H]3CC[C@]12C` [Org-1], for which, at NMDA (NR1a/NR2A), the “modulation of NMDA (NR1a/NR2A)” value was “positive modulator” and the “selectivity NMDA over GABAA” value was “selectively modulate NMDA over GABAA”.
Regarding pregnenolone sulfate [PS], the “modulation of NMDA receptors” value with NMDA receptors is “positively modulated”.
